Substitutions are numbered along the chain they refer to.
Columns and labels:
Experiment in all cases: whole-cell patch clamp, HEK293T
Assay type in all cases: cell-based
AtCLCa [1] = target: T1, AtCLCa (Arabidopsis thaliana, UniProt P92941, D753A); settings: 5 mM in pipette (cytosolic side); nitrate bath; pH 7.4
T1 construct: gene CLC-A; full-length, homodimer; structures: Pichia pastoris GS115, C-terminal GFP-6xHis tag cut by TEV, MSP1D1 nanodiscs; patch clamp: pKH3 vector in HEK293T
T1 sequence (P92941 1-775 D753A): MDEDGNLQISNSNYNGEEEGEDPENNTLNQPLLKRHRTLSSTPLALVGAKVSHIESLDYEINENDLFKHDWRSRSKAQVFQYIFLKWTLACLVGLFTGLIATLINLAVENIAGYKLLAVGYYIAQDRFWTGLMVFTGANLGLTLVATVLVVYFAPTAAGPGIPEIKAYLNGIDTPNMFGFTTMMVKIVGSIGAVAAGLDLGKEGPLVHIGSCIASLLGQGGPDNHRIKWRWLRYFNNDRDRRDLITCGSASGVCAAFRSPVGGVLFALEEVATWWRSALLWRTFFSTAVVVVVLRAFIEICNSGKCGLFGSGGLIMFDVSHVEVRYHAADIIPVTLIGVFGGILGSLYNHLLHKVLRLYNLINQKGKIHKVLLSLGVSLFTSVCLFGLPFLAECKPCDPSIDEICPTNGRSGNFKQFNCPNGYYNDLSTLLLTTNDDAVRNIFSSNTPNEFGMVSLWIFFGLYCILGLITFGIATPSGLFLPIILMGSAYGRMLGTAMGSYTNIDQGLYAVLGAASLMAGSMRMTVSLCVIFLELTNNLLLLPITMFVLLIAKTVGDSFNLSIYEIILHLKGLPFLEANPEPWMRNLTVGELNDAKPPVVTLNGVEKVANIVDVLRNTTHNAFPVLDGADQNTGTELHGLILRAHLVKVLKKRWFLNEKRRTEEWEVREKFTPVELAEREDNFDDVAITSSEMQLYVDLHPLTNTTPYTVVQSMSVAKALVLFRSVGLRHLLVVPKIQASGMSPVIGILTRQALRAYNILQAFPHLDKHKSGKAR

AtCLCa ΔN53 mutant = target: T2, AtCLCa ΔN53 mutant (Arabidopsis thaliana, UniProt P92941); settings: 5 mM in pipette (cytosolic side); nitrate bath; pH 7.4
T2 construct: gene CLC-A; N-terminal deletion ΔN53 (beta-hairpin residues 44-53 removed), homodimer, pKH3 vector in HEK293T
T2 sequence (P92941 54-775): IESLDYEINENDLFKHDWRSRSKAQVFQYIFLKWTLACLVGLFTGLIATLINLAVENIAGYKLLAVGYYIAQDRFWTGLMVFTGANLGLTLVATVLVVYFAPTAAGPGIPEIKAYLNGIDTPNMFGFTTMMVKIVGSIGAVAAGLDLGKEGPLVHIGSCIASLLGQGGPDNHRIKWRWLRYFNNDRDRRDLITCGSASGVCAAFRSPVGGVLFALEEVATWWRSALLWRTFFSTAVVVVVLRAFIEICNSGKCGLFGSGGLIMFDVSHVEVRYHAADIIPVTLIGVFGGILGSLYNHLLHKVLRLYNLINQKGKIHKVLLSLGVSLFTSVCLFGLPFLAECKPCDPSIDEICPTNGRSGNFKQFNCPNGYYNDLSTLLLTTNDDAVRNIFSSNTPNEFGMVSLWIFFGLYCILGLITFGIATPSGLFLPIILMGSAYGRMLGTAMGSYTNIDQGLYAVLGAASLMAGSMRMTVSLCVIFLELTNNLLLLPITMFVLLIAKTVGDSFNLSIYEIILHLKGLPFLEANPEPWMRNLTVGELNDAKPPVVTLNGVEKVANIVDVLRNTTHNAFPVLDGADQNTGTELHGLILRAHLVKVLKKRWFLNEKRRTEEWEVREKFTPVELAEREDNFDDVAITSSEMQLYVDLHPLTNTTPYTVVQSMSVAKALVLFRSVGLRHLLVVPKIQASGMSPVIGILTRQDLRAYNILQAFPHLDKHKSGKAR

AtCLCa [2] = target: T3, AtCLCa (Arabidopsis thaliana, UniProt P92941); set-up: gene CLC-A; full-length, homodimer; patch clamp: pKH3 vector in HEK293T; settings: 5 mM in pipette (cytosolic side); nitrate bath; pH 7.4; 5 mM MgCl2; room temperature
T3 sequence (P92941 1-775): T1 sequence (P92941 1-775 D753A) with A753D

**Q.** What does the source list for `Nc1ncnc2c1ncn2[C@@H]1O[C@H](COP(=O)(O)OP(=O)(O)OP(=O)(O)O)[C@@H](O)[C@H]1O` [ATP]?
**A.** inhibition of NO3^- currents at 5 mM (AtCLCa [1]): D753A mutant impairs the inhibition of ATP; inhibition of NO3^- currents at 5 mM (AtCLCa ΔN53 mutant): the NO3^− currents in ΔN53 mutant are not influenced by the addition of ATP; decrease of NO3^- currents at 5 mM (AtCLCa [2]): led to a decrease of approximately half of the NO3^− currents induced by wild-type AtCLCa

Source: publication PMC10423218, “Molecular mechanism underlying regulation of Arabidopsis CLCa transporter by nucleotides and phospholipids” (Nature Communications, 2023)
